Results taken from patent US11207312B2, “Metallo-beta-lactamase inhibitors and methods of use thereof” (priority 2017, dated 2021).

How the values were obtained:
NDM-1 = NDM-1 (Klebsiella pneumoniae, UniProt C7C422); test: biochemical; assay type: biochemical; details: CCF2-FA fluorescence assay, 2 hours at 25° C.
How it was run: (§1)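 Enzyme (NDM-1 1 pM, IMP-1 2 pM, VIM-1 30 pM final) and 1.25 μM CCF2-FA incubated with inhibitor (20 to 0.00063 μM) for 2 h at 25° C in 100 mM KH2PO4 pH 7, 0.005% Tween-20, 10 μM ZnSO4. Fluorescence read at ex 405/em 460 nm; IC50 by 4-parameter fit.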

[1] = system: Escherichia coli expressing NDM-1 (CLB30016); assay type: cell-based; details: with imipenem 1 μg/ml; 95% inhibition of bacterial growth
How it was run: (§2)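 Synergy with imipenem at a fixed 1 μg/ml was scored by absorbance following 22–24 h incubation at 35 °C; the potentiating concentration (MITC95) was the lowest giving 95% growth inhibition.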

[2] = system: Klebsiella pneumoniae expressing VIM-1 (IHMA599644); assay type: cell-based; details: with imipenem 1 μg/ml; 95% inhibition of bacterial growth
How it was run: as §2

[3] = system: Serratia marcescens expressing IMP-1 (CL5741); assay type: cell-based; details: with imipenem 1 μg/ml; 95% inhibition of bacterial growth
How it was run: as §2

[4] = system: P. aeruginosa MB9798 (efflux+, IMP-1 plasmid); details: for MB9798 MITC95 P. aeruginosa uM Efflux WT: efflux + (MB9798) strain, imipenem at 2 μg/mL, in the presence of a class A, C, D serine β-lactamase inhibitor closely related to relebactam; for Efflux ratio: fold difference between efflux+ (MB9798) and efflux− (MB9799) strains
How it was run: (§3)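 Isogenic P. aeruginosa PAO1 strains (efflux+ and multiple-efflux-pump-disrupted) carrying plasmid IMP-1, with inducible AmpC, tested by broth microdilution. Imipenem and/or ceftazidime fixed, usually at CLSI breakpoint, plus fixed class A/C β-lactamase inhibitor; titrated MBL inhibitor concentration restoring susceptibility recorded and compared between strains as efflux fold difference.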

IMP-1 = IMP-1 (Serratia marcescens, UniProt P52699); test: biochemical; details: CCF2-FA fluorescence assay, 2 hours at 25° C.; read-out: IMP1 IC50
Sequence of IMP-1 (P52699 whole entry, looked up, species assumed): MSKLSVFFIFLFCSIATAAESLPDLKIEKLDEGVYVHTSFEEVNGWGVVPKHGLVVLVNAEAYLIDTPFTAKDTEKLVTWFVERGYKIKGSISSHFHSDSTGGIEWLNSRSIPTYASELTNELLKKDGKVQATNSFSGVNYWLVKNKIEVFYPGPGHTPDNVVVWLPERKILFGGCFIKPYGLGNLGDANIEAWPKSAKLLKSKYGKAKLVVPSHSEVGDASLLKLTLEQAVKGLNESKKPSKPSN
How it was run: as §1

VIM-1 = VIM-1 (Pseudomonas aeruginosa (strain ATCC 15692 / DSM 22644 / CIP 104116 / JCM 14847 / LMG 12228 / 1C / PRS 101 / PAO1), UniProt A0A0F7KYQ8); test: biochemical; details: CCF2-FA fluorescence assay, 2 hours at 25° C.; read-out: VIM1 IC50
How it was run: as §1

[5] = system: P. aeruginosa MB9799 (efflux-, IMP-1 plasmid); assay type: cell-based, Pseudomonas aeruginosa; details: efflux − (MB9799) strain; imipenem at 2 μg/mL; in the presence of a class A, C, D serine β-lactamase inhibitor closely related to relebactam
How it was run: as §3

VIM-2 = VIM-2 (Escherichia coli, UniProt Q5U7L7); test: biochemical; details: CCF2-FA fluorescence assay; read-out: VIM2 IC50

Sequence of NDM-1 (C7C422 whole entry, looked up, species assumed): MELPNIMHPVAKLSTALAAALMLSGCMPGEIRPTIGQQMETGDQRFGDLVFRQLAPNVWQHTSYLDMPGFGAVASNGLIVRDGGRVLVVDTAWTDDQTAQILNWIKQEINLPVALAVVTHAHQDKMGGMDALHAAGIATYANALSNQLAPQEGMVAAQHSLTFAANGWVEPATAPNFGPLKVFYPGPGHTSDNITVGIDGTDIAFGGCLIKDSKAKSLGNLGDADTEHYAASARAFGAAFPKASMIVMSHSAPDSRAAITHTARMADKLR

| SMILES | IC50 (NDM-1) | CLB30016 E. coli MITC95 NDM [1] | IHMA599644 K. pneumoniae MITC95 VIM [2] | CL5741 S. marcescens MITC95 IMP [3] | MB9798 MITC95 P. aeruginosa uM Efflux WT [4] | Efflux ratio [4] | IC50 (IMP-1) | IC50 (VIM-1) | MB9799 MITC95 P. aeruginosa uM Efflux Mutant [5] | IC50 (VIM-2) |
| --- | --- | --- | --- | --- | --- | --- | --- | --- | --- | --- |
| N.NC[C@@H](O)CNS(=O)(=O)c1ccc(N2CCN(CC(=O)O)CC2)c(-c2nnn[nH]2)c1S(N)(=O)=O [Example 137, ammonium (R)-2-(4-(4-(N-(3-amino-2-hydroxypropyl)sulfamoyl)-3-sulfamoyl-2-(1H-tetrazol-5-yl)phenyl)piperazin-1-yl)acetate] | 3.5 nM | 0.78 µM | 6.25 µM | 1.56 µM | 6.25 µM | 2.00 | 4.97 nM | 16.1 nM | 3.13 µM | 15.3 nM |
| NCC(=O)N1CCN(c2ccc(S(=O)(=O)NC[C@H](O)CN)c(S(N)(=O)=O)c2-c2nn[nH]n2)CC1 [Example 119, (R)—N1-(3-amino-2-hydroxypropyl)-4-(4-(2-aminoacetyl)piperazin-1-yl)-3-(2H-tetrazol-5-yl)benzene-1,2-disulfonamide] | 3.45 nM | 0.78 µM | 1.56 µM | 0.78 µM | 1.56 µM | 2.00 | 6.56 nM | 0.57 nM | 0.78 µM | 10.1 nM |
| CN(C)C1(C)CN(c2ccc(S(=O)(=O)N[C@@H]3CCNC3)c(S(N)(=O)=O)c2-c2nnn[nH]2)C1 [Example 114, 4-[3-(dimethylamino)-3-methylazetidin-1-yl]-N1-[(3R)-pyrrolidin-3-yl]-3-(1H-tetrazol-5-yl)benzene-1,2-disulfonamide] | 12 nM | 1.56 µM | 3.13 µM | 3.13 µM | 12.50 µM | 4.00 | 50.5 nM | 1.24 nM | 3.13 µM | 4.27 nM |
| NCC1=CCN(c2ccc(S(=O)(=O)NC[C@H](O)CN)c(S(N)(=O)=O)c2-c2nn[nH]n2)C1.O=C(O)C(F)(F)F.O=C(O)C(F)(F)F [Example 170] | 11.4 nM | 1.56 µM | 1.56 µM | 1.56 µM | 6.25 µM | 4.00 | 15.3 nM | 5.64 nM | 1.56 µM | 42.9 nM |
| NS(=O)(=O)c1c(S(=O)(=O)C2CNC2)ccc(N2CCN(CCCO)CC2)c1-c1nnn[nH]1 [Example 53, 6-(azetidin-3-ylsulfonyl)-3-[4-(3-hydroxypropyl)piperazin-1-yl]-2-(1H-tetrazol-5-yl)benzenesulfonamide] | 8.79 nM | 0.39 µM | 3.13 µM | 0.39 µM | 6.25 µM | 4.00 | 7.81 nM | 25.1 nM | 1.56 µM | 35.5 nM |
| NS(=O)(=O)c1c(S(=O)(=O)N[C@@H]2CCNC2)ccc(N2CCC(CF)CC2)c1-c1nnn[nH]1 [Example 89, 4-[4-(fluoromethyl)piperidin-1-yl]-N1-[(3R)-pyrrolidin-3-yl]-3-(1H-tetrazol-5-yl)benzene-1,2-disulfonamide] | 0.21 nM | 1.56 µM | 12.50 µM | 3.13 µM | 3.13 µM | 2.00 | 0.61 nM | 0.21 nM | 1.56 µM | 0.66 nM |
| CC1CC(CN)CCN1c1ccc(S(=O)(=O)NC[C@H](O)CN)c(S(N)(=O)=O)c1-c1nn[nH]n1 (stereo partly drawn) [Example 4, N1-((R)-3-amino-2-hydroxypropyl)-4-(4-(aminomethyl)-2-methylpiperidin-1-yl)-3-(2H-tetrazol-5-yl)benzene-1,2-disulfonamide] | 2.17 nM | 3.13 µM | 3.13 µM | 1.56 µM | 1.56 µM | 2.00 | 9.4 nM | 0.18 nM | 0.78 µM | 2.4 nM |
| C[N+](C)(C)CCCCNc1ccc(S(=O)(=O)N[C@@H]2CCNC2)c(S(N)(=O)=O)c1-c1nnn[nH]1 [Example 72, N,N,N-trimethyl-4-({4-[(3R)-pyrrolidin-3-ylsulfamoyl]-3-sulfamoyl-2-(1H-tetrazol-5-yl)phenyl}amino)butan-1-aminium] | 3.31 nM | 1.56 µM | 6.25 µM | 3.13 µM | 25.00 µM | 8.00 | 9.32 nM | 2.01 nM | 3.13 µM | 6.04 nM |
| NC[C@@H](O)CNS(=O)(=O)c1ccc(N2CCC(NCCO)CC2)c(-c2nn[nH]n2)c1S(N)(=O)=O [Example 142, (R)-N1-(3-amino-2-hydroxypropyl)-4-(4-((2-hydroxyethyl)amino)piperidin-1-yl)-3-(2H-tetrazol-5-yl)benzene-1,2-disulfonamide bis(2,2,2-trifluoroacetate)] | 7.59 nM | 0.39 µM | 1.56 µM | 0.78 µM | 0.78 µM | 1.00 | 5.95 nM | 0.42 nM | 0.78 µM | 9.26 nM |
| NCCOC1CCN(c2ccc(S(=O)(=O)NC[C@H](O)CN)c(S(N)(=O)=O)c2-c2nn[nH]n2)CC1 [Example 209, (R)—N1-(3-amino-2-hydroxypropyl)-4-(4-(2-aminoethoxy)piperidin-1-yl)-3-(2H-tetrazol-5-yl)benzene-1,2-disulfonamide] | 0.96 nM | 0.78 µM | 1.56 µM | 1.56 µM | 0.78 µM | 1.00 | 1.69 nM | 0.12 nM | 0.78 µM | 3.32 nM |
| NCCNS(=O)(=O)C1CCN(c2ccc(S(=O)(=O)N[C@@H]3CCNC3)c(S(N)(=O)=O)c2-c2nn[nH]n2)CC1 [Example 167, (R)-4-(4-(N-(2-aminoethyl)sulfamoyl)piperidin-1-yl)-N1-(pyrrolidin-3-yl)-3-(2H-tetrazol-5-yl)benzene-1,2-disulfonamide] | 0.25 nM | 1.17 µM | 1.56 µM | 1.17 µM | 0.78 µM | 1.00 | 0.25 nM | 0.05 nM | 0.78 µM | 0.4 nM |
